Row | Structure (SMILES) | melting point [°C]
1 | N#Cc1ccc2[nH]cc(C=C[N+](=O)[O-])c2c1 | 217 to 220
2 | CN(C)Cc1ccc(CSCCNc2ncc(Cc3cccnc3)c(=O)[nH]2)cc1 | 124 to 126
3 | COc1ccc(-c2nc(=O)c3ccccc3o2)cc1 | 175 to 178
4 | CC#Cc1ncn2c1CN(C)C(=O)c1ccccc1-2 | 206 to 207
5 | Brc1ccc(-c2cn([C@H]3CN4CCC3CC4)nn2)cc1 | 158
6 | CCCCc1csc2ccc3[nH]c4c(c3c12)CN(Cc1ccccc1)CC4 | 127 to 128
7 | O=[N+]([O-])c1ccc(C(c2cccs2)C(Cc2cccs2)N2CCC(Cc3ccccc3)CC2)cc1 (stereo not drawn) | 124 to 126
8 | Cc1nc(C)n(-c2cc(C)c3[nH]c(=O)ccc3c2)c1[N+](=O)[O-] | 244 to 247
9 | Fc1ccccc1-c1cccc2[nH]c3c(c12)CCN(Cc1ccccc1)CC3 | 157 to 159
10 | Cc1ccccc1CC(=O)N1C[C@@H]2C(=O)CCC(c3ccccc3)(c3ccccc3)[C@@H]2C1 (racemic) | 196
11 | CC1CC(=O)NN=C1c1ccc(NCCNC(N)=S)c([N+](=O)[O-])c1 (stereo not drawn) | 231 to 233
12 | CC1CC2(OC3CC4C5CCC6CC(O)CCC6(C)C5C(=O)CC4(C)C3C2(C)O)OC1(C)C (stereo not drawn) | 206 to 208
13 | CCCc1c2nc(C(=O)OCC)cc(OCC)c2cc2c(=O)cc(C(=O)OCC)oc12 | 190 to 192
14 | O=C1c2cccc3cc4ccccc4c(c23)C(=O)N1CCNCCN1C(=O)c2cccc3cc4ccccc4c(c23)C1=O | 271
15 | COc1ccc(/C=C/C#N)cc1OC | 93 to 98
16 | CN1CCN(c2ccc(/C=C/c3ccccc3F)cc2)CC1 | 142 to 144
17 | OC1CSC(Oc2cncc(-c3ccc(F)c(F)c3)c2)C(O)C1O (stereo not drawn) | 198 to 203
18 | CCOC(=O)C1(S(=O)(=O)c2ccc(OCc3ccccc3)cc2)CCN(Cc2ccccc2)CC1 | 89
19 | CNC(=NS(=O)(=O)c1ccc(C)cc1)Nc1cc(C(C)c2ccc(-c3ccccc3)c(F)c2)on1 (stereo not drawn) | 125 to 127
20 | O=c1cc(N2CCNCC2)oc2c1ccc1ccccc12 | 208 to 209
21 | COc1ccc(-c2nc(Sc3ccccc3NC(C)=O)[nH]c2-c2ccc(OC)cc2)cc1 | 183
22 | O=C(O)COc1ccc2c(c1)Cc1sc(S(=O)(=O)CCC(c3ccccc3)c3ccccc3)nc1-2 | 172 to 174
23 | CN1Cc2c(Cl)ncn2-c2ccccc2C1=S | 198
24 | FC(F)(F)c1cc(-c2ccc(Cl)cc2)nc2c(-c3ccncc3)cnn12 | 274
25 | CCOC(=O)Cc1cccc2c(-c3ccc(N)cc3)nccc12 | 129 to 132

Row | Structure (SMILES) | melting point [°C]
26 | Cc1ccc(S(=O)(=O)n2c3cccc(CCl)c3c3c(C)ccc(C)c32)cc1 | 149
27 | C(#Cc1cccnc1)c1ccccc1 | 42 to 43
28 | COCCOC[C@H](CC1(C(=O)O)CCCC1)C(=O)OC(C)(C)C | 86 to 87
29 | O=c1oc2ccc(-c3ccc(F)cc3F)cc2c(=O)n1-c1ccc(Cl)cc1F | 176 to 177
30 | Oc1ccc(N2CCN(Cc3c[nH]c4ncccc34)CC2)cc1 | 197 to 200
31 | Nc1ccc(Cl)cc1C(=O)c1cccc(Cl)c1 | 118 to 119
32 | Cc1ccc(OCn2c(-c3nonc3NCCC#N)nc3ccccc32)cc1C | 132 to 135
33 | c1cc(-c2noc(C3CC3)n2)ncn1 | 89 to 94
34 | CCOc1ccc(-c2ccc3c(c2)C=C(C(=O)Nc2ccc(CN(C)C4CCOCC4)cc2)CCN3C=O)cc1F | 193 to 196
35 | COc1c(CNS(=O)(=O)c2ccc(C)cc2)ccc2c1OCO2 | 150 to 151
36 | Nc1nc(Nc2ccc(S(N)(=O)=O)cc2)sc1C(=O)c1ccc(C(=O)Oc2ccccc2)cc1 | > 300
37 | COC/C=C\c1cccc(C2(c3ccc(OC(F)F)cc3)N=C(N)N(C)C2=O)c1 (stereo not drawn) | 41 to 44
38 | c1ccc(C2(Oc3cnccn3)CCNCC2)cc1 | 107 to 108
39 | CS(=O)(=O)c1ccc(-n2cnc3ccc(-c4nnc(C5CC5)o4)cc32)cc1 | 215 to 216
40 | N#Cc1nc2ccc(Cl)cc2c2c1ncn2-c1ccccc1Cl | 248 to 250
41 | CN=C1SC(=NOC(=O)NC)C(C)(C)S1 | 68 to 70
42 | COc1ccc(C(O)C=Cc2ccc(N(C)C)cc2)cc1 (stereo not drawn) | 137 to 148
43 | Cc1cc(-c2nnc3c4ccccc4c(OCc4cnc5ccccc5n4)nn23)no1 | 243 to 245
44 | CN(CCCOC(=O)Cc1ccccc1Nc1c(Cl)cccc1Cl)CC1(SN=O)CCCCC1 | 58 to 60
45 | COc1cc2c(cc(C(=O)OCc3ccccc3)n2CCC#N)c(C)c1C | 140
46 | COc1cc(OC)nc(CC#N)n1 | 65 to 67
47 | O=C(NC1CC1)C(Cl)Cl | 130 to 132
48 | CCCCNC(P(=O)(O)O)P(=O)(O)O | 188 to 189
49 | O=[N+]([O-])c1ccc(CNc2ccccn2)cc1 | 131 to 132

More lines, now with the values ahead:

Row | melting point [°C] | Structure (SMILES)
50 | 168 to 171 | CC(C)OC(=O)N1CCC(c2nc3cc(-c4ccc(-n5cnnn5)cc4F)ccc3o2)CC1
51 | 177 to 190 | Cc1cccc(C)c1C(=O)Nc1ccc(OCCN2CCOCC2)cc1
52 | 90 to 91 | O=C(c1ccc([N+](=O)[O-])cc1)N1CCOCC1
53 | 174 to 175 | CC1(C)Oc2ccc(C(F)(F)F)cc2[C@@H](NC(=O)Nc2ccccc2)[C@@H]1O (relative stereo)
54 | 217 to 220 | Cn1c(=O)c2c(I)cccc2n2cnc(-c3noc(C4CC4)n3)c12
55 | 131 to 134 | COc1ccc(NN=C(Sc2cc(C)ccc2C)C(C)=O)cc1
56 | 76.5 to 77.5 | COC(=O)c1cc(CO)cc([N+](=O)[O-])c1
57 | 100 to 102 | CCCN(CCC)c1nc2c(c(-c3c(C)cc(C)cc3C)cn2C)c(=O)n1C
58 | 201 to 203 | Cn1cc(C(=O)O)cc1Cl
59 | 168 to 173 | CSc1ccc(Cl)c(C(=O)Nc2ccc(-n3nc(C4CC4)cc3C3CC3)cc2)c1
60 | 94 to 96 | CC(C)(C)C(=O)C=Cc1ccc2c(c1)OCO2
61 | 197 | Cc1ccc2c(c1)OCC(=O)N2
62 | 169 to 171 | Cc1c([N+](=O)[O-])ccc2c1CCN2
63 | 182 | COC(=O)N1CCCCc2cc(C3=NNC(=O)SC3C)ccc21 (stereo not drawn)
64 | 86 to 88 | CC(=O)NCCc1ccc(CCl)cc1
65 | 213 to 216 | CCCCCCCCCCCCCCCCCCOc1cc(C(N)=O)cc(N(CC(=O)O)CC(=O)O)c1
66 | 95 to 97 | COC(=O)N1CCC(c2nn(-c3ccc(F)cc3)c3ccccc23)CC1
67 | 72 to 73 | COC(=O)CCC(C#N)(CCC(=O)OC)c1ccc(OC)c(OC)c1
68 | 109 to 112 | CCOC(=O)Cc1ccc(SCc2ccc(Cl)cc2C(=O)O)cc1
69 | 145 to 152 | Cc1ccc(C(=O)NC(C)(C(N)=O)C(C)C)cc1 (stereo not drawn)
70 | 129 to 130 | COC(=O)c1ccc(C(=O)N2CCN(c3ncccc3[N+](=O)[O-])CC2)nc1
71 | 229 to 230 | CCNC(=O)Nc1cc(-c2c(-c3ccc(F)c(C)c3)nc3c(C)cc(Cl)nn23)ccn1
72 | 100 | CCOC(=O)C1=CC(=O)C2(C(=O)c3ccc(Cl)cc3)OC2O1 (stereo not drawn)
73 | 147 to 149 | CCC(C)(C)NC(=S)Nc1cc(Br)cc(Br)c1
74 | 218 to 221 | Cc1cc(C2(C(F)(F)F)CC2(C#N)C#N)ccc1NC(=O)c1cccc(I)c1C(=O)NC(C)C (stereo not drawn)
75 | 171 to 172 | COc1ccc(C(=O)Nc2ccc(F)c(F)c2)cc1N
76 | 129 to 130 | Cc1cc(Oc2ncc(C(F)(F)F)cc2Cl)nn1C(=O)Nc1cccc(Cl)c1

Row | melting point [°C] | Structure (SMILES)
77 | 56 to 58 | Cc1c(Cl)nnc(Cl)c1C(C)(C)CCl
78 | 155 to 156 | CC(=O)NCC(NC(C)=O)c1ccccc1 (stereo not drawn)
79 | 296 to 299 | CCc1cc2[nH]c(=O)c(=O)[nH]c2c(N(CC(=O)OC)S(C)(=O)=O)c1Cl
80 | 180 to 182 | Cc1oc2cc(C3CC(=O)N(C4CC4)C(=O)C3)ccc2c1C
81 | 112 to 114 | CC(C)(C)OC(=O)NC(C(=O)O)c1ccc(O)cc1 (stereo not drawn)
82 | 174 to 176 | COc1ccc(C(=O)Nc2ccccc2)cc1NC(=S)Nc1ccccc1
83 | 235 to 236 | Cc1ccc(-c2csc(-c3cccc(C(=O)O)c3)n2)cc1C
84 | 230 | N#Cc1ccc(C(=O)N[C@H]2CC[C@H](CCN3CCC(c4cccc5c4CCO5)CC3)CC2)cc1
85 | 82 to 83 | O=Cc1cccn1-c1ccc(F)cc1
86 | 164 to 165 | CC(=O)Nc1cccc(OC2CCNCC2)c1
87 | 241 to 244 | O=C(C=C(O)c1ccccc1O)c1cn(S(=O)(=O)c2ccccc2)c2ccc(Cl)cc12
88 | 212 to 214 | COc1ccc(C(=O)Nc2ccccc2)cc1NS(=O)(=O)c1ccc(C(=O)O)cc1
89 | 169 to 171 | NC(=O)c1cc(OCCNCC(O)c2ccco2)ccc1O (stereo not drawn)
90 | 112 to 115 | C#CCn1c(-c2cc(Cl)nc(Cl)c2)nc(CC)c(OC)c1=O
91 | 188 to 189 | CN1C(=O)C(c2ccccc2)Oc2cccc3nc4c(c1c23)CCCC4 (stereo not drawn)
92 | 179 to 182 | COc1cc(CNc2nc(C)nc(C)c2Cl)ccc1O
93 | 248 to 253 | CCOC(=O)c1n[nH]c2c(=S)[nH]c3cc(Cl)ccc3c(=O)c12
94 | 176 | CC(C)(C)OC(=O)N1CC(CO)c2c1cc([N+](=O)[O-])c1ccccc21 (stereo not drawn)
95 | 131 | Cc1nn(-c2cccnc2)cc1I
96 | 38 to 39 | OCCCCOc1nc(F)c(Cl)cc1Cl
97 | 129 to 130 | O=C(O)CCc1oc(SCc2cccnc2)nc1-c1ccc(Cl)cc1
98 | 72 to 73 | Nc1cc(F)ccc1C=C(Br)Br
99 | 46 | CC(=O)Oc1ccc(C(=O)OCC[C@H](C)COC(=O)c2ccc(OC(C)=O)cc2)cc1
100 | 108 to 110 | CCCCc1nc2cc(C(=O)OC)ccc2[nH]1
101 | 54 to 55 | CCCCOc1cc(C(CC(=O)OC)N2C(=O)c3ccccc3C2=O)ccc1OC (stereo not drawn)
102 | 265 to 266 | O=C(NC1CCCNC1)c1ccc2[nH]ncc2c1 (stereo not drawn)
103 | 59 to 61 | Clc1ccc(-n2nc3c(c2Cl)CCCCC3)cc1
